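Test compounds were applied to cells in 96-well plates for 48 hours at 5 doses. Here, GI50 denotes the concentration required for 50% inhibition of growth. The concentration for full growth arrest is given as TGI.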
Tests used:
Assay in all cases: NCI anticancer screen, dose series, 48 h
786-0 renal = system: 786-0 renal
A498 renal = system: A498 renal
A549 NSCLC = system: A549 NSCLC
ACHN renal = system: ACHN renal
BT-549 breast = system: BT-549 breast
CAKI-1 renal = system: CAKI-1 renal
CCRF-CEM leukemia = system: CCRF-CEM leukemia
COLO 205 colon = system: COLO 205 colon
DU-145 prostate = system: DU-145 prostate
EKVX NSCLC = system: EKVX NSCLC
HCC-2998 colon = system: HCC-2998 colon
HCT-116 colon = system: HCT-116 colon
HCT-15 colon = system: HCT-15 colon
HL-60(TB) leukemia = system: HL-60(TB) leukemia
HOP-62 NSCLC = system: HOP-62 NSCLC
HOP-92 NSCLC = system: HOP-92 NSCLC
HS 578T breast = system: HS 578T breast
HT29 colon = system: HT29 colon
IGROV1 ovarian = system: IGROV1 ovarian
K-562 leukemia = system: K-562 leukemia
KM12 colon = system: KM12 colon
LOX IMVI melanoma = system: LOX IMVI melanoma
M14 melanoma = system: M14 melanoma
MALME-3M melanoma = system: MALME-3M melanoma
MCF7 breast = system: MCF7 breast
MDA-MB-231 breast = system: MDA-MB-231 breast
MDA-MB-435 = system: MDA-MB-435
MOLT-4 leukemia = system: MOLT-4 leukemia
NCI-H226 lung = system: NCI-H226 lung
NCI-H460 lung = system: NCI-H460 lung
NCI-H522 lung = system: NCI-H522 lung
NCI/ADR-RES ovarian = system: NCI/ADR-RES ovarian
OVCAR-3 ovarian = system: OVCAR-3 ovarian
OVCAR-4 ovarian = system: OVCAR-4 ovarian
OVCAR-5 ovarian = system: OVCAR-5 ovarian
OVCAR-8 ovarian = system: OVCAR-8 ovarian
PC-3 prostate = system: PC-3 prostate
RPMI-8226 leukemia = system: RPMI-8226 leukemia
RXF 393 renal = system: RXF 393 renal
SF-268 CNS = system: SF-268 CNS
SF-295 CNS = system: SF-295 CNS
SF-539 CNS = system: SF-539 CNS
SK-MEL-2 melanoma = system: SK-MEL-2 melanoma
SK-MEL-28 melanoma = system: SK-MEL-28 melanoma
SK-MEL-5 melanoma = system: SK-MEL-5 melanoma
SK-OV-3 ovarian = system: SK-OV-3 ovarian
SN12C renal = system: SN12C renal
SNB-19 CNS = system: SNB-19 CNS
SR leukemia = system: SR leukemia
SW-620 colon = system: SW-620 colon
T-47D breast = system: T-47D breast
TK-10 renal = system: TK-10 renal
U251 CNS = system: U251 CNS
UACC-257 melanoma = system: UACC-257 melanoma
UACC-62 melanoma = system: UACC-62 melanoma
UO-31 renal = system: UO-31 renal

CC1(C)C(=O)/C(=C\c2cccnc2)C[C@]2(C)[C@H]3CC[C@@H]4[C@@H](C(=O)/C=C/c5ccncc5)CC[C@@]4(C)[C@]3(C)CC[C@@H]12
GI50 (786-0 renal): 1850 nM | TGI (786-0 renal): 3410 nM | GI50 (A498 renal): 1890 nM | TGI (A498 renal): 3700 nM | GI50 (A549 NSCLC): 2620 nM | TGI (A549 NSCLC): 10700 nM | GI50 (ACHN renal): 1750 nM | TGI (ACHN renal): 3360 nM | GI50 (BT-549 breast): 1590 nM | TGI (BT-549 breast): 3350 nM | GI50 (CAKI-1 renal): 2510 nM | TGI (CAKI-1 renal): 6460 nM | GI50 (CCRF-CEM leukemia): 1790 nM | TGI (CCRF-CEM leukemia): 8530 nM | GI50 (COLO 205 colon): 1880 nM | TGI (COLO 205 colon): 3870 nM | GI50 (DU-145 prostate): 1680 nM | TGI (DU-145 prostate): 3240 nM | GI50 (EKVX NSCLC): 2820 nM | TGI (EKVX NSCLC): 9200 nM | GI50 (HCC-2998 colon): 2100 nM | TGI (HCC-2998 colon): 3840 nM | GI50 (HCT-116 colon): 1620 nM | TGI (HCT-116 colon): 3160 nM | GI50 (HCT-15 colon): 1710 nM | TGI (HCT-15 colon): 4850 nM | GI50 (HL-60(TB) leukemia): 1780 nM | TGI (HL-60(TB) leukemia): 6350 nM | GI50 (HOP-62 NSCLC): 1900 nM | TGI (HOP-62 NSCLC): 3940 nM | GI50 (HOP-92 NSCLC): 1480 nM | TGI (HOP-92 NSCLC): 3390 nM | GI50 (HS 578T breast): 2780 nM | TGI (HS 578T breast): 7930 nM | GI50 (HT29 colon): 2410 nM | TGI (HT29 colon): 8640 nM | GI50 (IGROV1 ovarian): 2030 nM | TGI (IGROV1 ovarian): 4050 nM | GI50 (K-562 leukemia): 1200 nM | TGI (K-562 leukemia): > 100000 nM | GI50 (KM12 colon): 1720 nM | TGI (KM12 colon): 3560 nM | GI50 (LOX IMVI melanoma): 1380 nM | TGI (LOX IMVI melanoma): 2950 nM | GI50 (M14 melanoma): 1890 nM | TGI (M14 melanoma): 4930 nM | GI50 (MALME-3M melanoma): 1780 nM | TGI (MALME-3M melanoma): 3430 nM | GI50 (MCF7 breast): 804 nM | TGI (MCF7 breast): 4620 nM | GI50 (MDA-MB-231 breast): 2960 nM | TGI (MDA-MB-231 breast): 9940 nM | GI50 (MDA-MB-435): 1980 nM | TGI (MDA-MB-435): 4770 nM | GI50 (MOLT-4 leukemia): 2780 nM | TGI (MOLT-4 leukemia): 10400 nM | GI50 (NCI-H226 lung): 2340 nM | TGI (NCI-H226 lung): 5780 nM | GI50 (NCI-H460 lung): 1900 nM | TGI (NCI-H460 lung): 4000 nM | GI50 (NCI-H522 lung): 1660 nM | TGI (NCI-H522 lung): 4600 nM | GI50 (NCI/ADR-RES ovarian): 2280 nM | TGI (NCI/ADR-RES ovarian): 7120 nM | GI50 (OVCAR-3 ovarian): 1700 nM | TGI (OVCAR-3 ovarian): 3360 nM | GI50 (OVCAR-4 ovarian): 2550 nM | TGI (OVCAR-4 ovarian): 9890 nM | GI50 (OVCAR-5 ovarian): 2450 nM | TGI (OVCAR-5 ovarian): 5360 nM | GI50 (OVCAR-8 ovarian): 2340 nM | TGI (OVCAR-8 ovarian): 10300 nM | GI50 (PC-3 prostate): 1650 nM | TGI (PC-3 prostate): 4550 nM | GI50 (RPMI-8226 leukemia): 1210 nM | TGI (RPMI-8226 leukemia): 5430 nM | GI50 (RXF 393 renal): 1720 nM | TGI (RXF 393 renal): 3180 nM | GI50 (SF-268 CNS): 2410 nM | TGI (SF-268 CNS): 6530 nM | GI50 (SF-295 CNS): 1950 nM | TGI (SF-295 CNS): 4310 nM | GI50 (SF-539 CNS): 1760 nM | TGI (SF-539 CNS): 3250 nM | GI50 (SK-MEL-2 melanoma): 1930 nM | TGI (SK-MEL-2 melanoma): 4380 nM | GI50 (SK-MEL-28 melanoma): 1980 nM | TGI (SK-MEL-28 melanoma): 3970 nM | GI50 (SK-MEL-5 melanoma): 1670 nM | TGI (SK-MEL-5 melanoma): 3050 nM | GI50 (SK-OV-3 ovarian): 4860 nM | TGI (SK-OV-3 ovarian): 18900 nM | GI50 (SN12C renal): 2470 nM | TGI (SN12C renal): 7850 nM | GI50 (SNB-19 CNS): 1660 nM | TGI (SNB-19 CNS): 3220 nM | GI50 (SR leukemia): 1680 nM | TGI (SR leukemia): 9810 nM | GI50 (SW-620 colon): 1810 nM | TGI (SW-620 colon): 4590 nM | GI50 (T-47D breast): 1600 nM | TGI (T-47D breast): 9540 nM | GI50 (TK-10 renal): 2700 nM | TGI (TK-10 renal): 5290 nM | GI50 (U251 CNS): 1620 nM | TGI (U251 CNS): 3030 nM | GI50 (UACC-257 melanoma): 1800 nM | TGI (UACC-257 melanoma): 4440 nM | GI50 (UACC-62 melanoma): 1610 nM | TGI (UACC-62 melanoma): 3460 nM | GI50 (UO-31 renal): 1670 nM | TGI (UO-31 renal): 3040 nM
